Experiment [1] concerns GT-1a pRLuc H771b 75 S/I subgenomic replicon cell line. In words: HCV GT-1a replicon luciferase reporter assay. The class given is cell-based. The settings on record: Hepatitis C virus, GT1A, 72 h, read-out: GT-1a (IC50) (nM). The procedure, abridged:
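Huh-7-derived subgenomic replicon cells (GT-1b Con1 2209-23, 5000/well; GT-1a H77 chimera with Con1 NS3 first 75 aa, 3000/well) in 5% FBS DMEM; compounds added 24 h post-plating, 3-fold dilutions, 1% DMSO. Renilla luciferase read after 72 h; EC50 is 50% signal reduction versus untreated, non-linear fit.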
In general terms: A replicon is a self-replicating genome or part of one, used to study replication in cells.

Experiment [2] deals with HCV GT1b replicon (2209-23 cell line, GT-1b Con1 subgenomic replicon in Huh-7). Put plainly: HCV GT1b replicon luciferase reporter assay. The experiment is classed as cell-based. The settings on record: Hepatitis C virus, Huh-7, 2209-23 cells (GT-1b Con1), Renilla luciferase read 72 hours after addition of compounds, read-out: GT-1b (IC50). The source says: Determination of compounds HCV GT1b inhibitory replicon activity using the replicon luciferase reporter assay
The 2209-23 cell line was developed at Roche by stable transfection of the hepatoma cell line Huh-7 with a GT-1b Con1 subgenomic bicistronic replicon as previously described. Subgenomic replicon cell line was established in cured Huh7 cells, obtained from R. Bartenschlager (J. Virol. 2003 March; 77 (5):3007-19) The GT-1a H77 subgenomic replicon vector pRLuc H771b 75 S/I, was created by replacing the non structural region of the GT-1b Con1 subgenomic replicon by the one of the H77 strain, except for the first 75 amino acids of the NS3 protein that are from GT-1b Con1 strain. (J. Virol. 2001 77:5352-59) The GT-1a pRLuc H771b 75 S/I subgenomic replicon cell line was established in cured Huh7 cells, obtained from R. Bartenschlager. (J. Virol. 2003 March; 77 (5):3007-19)
All the subgenomic replicon cell lines were cultured in Dulbecco's Modified Eagle Medium (DMEM-Glutamax™-I; Invitrogen Cat #10569-010). The medium was supplemented with 10% Fetal Bovine Serum (Invitrogen Cat #10082-147), 1% penicillin/streptomycin (Mediatech Cat #30-002-CI) and 500 μg/ml of G418 (Mediatech Cat #30-234-CI). Cells were maintained at 37° C. in a humidified 5% CO2 atmosphere.
2209-23 cells were plated at a cell density of 5000 cells per well in 96 well plates (Becton Dickinson, Cat #35 3296). Cells were plated in 90 μl of Dulbecco's Modified Eagle Medium (DMEM-Glutamax™-I), (Invitrogen Cat #10569-010) medium was supplemented with 5% Fetal Bovine Serum (Invitrogen Cat #10082-147), 1% penicillin/streptomycin (Mediatech Cat #30-002-CI). The pRluc H771b 75 S/I cells were plated in 96-well plate at 3000 cells/well in DMEM-Glutamax™-I containing 5% FBS and 1% penicillin/streptomycin in 90 μl final volume. Cells were allowed to equilibrate for 24 hours at 37° C. and 5% CO2 at which time compounds were added. Compounds (or medium as a control) were added 24 hours post-plating in 3 fold dilutions at a final DMSO concentration of 1% in 10 ul volume. Renilla luciferase reporter signal was read 72 hours after addition of compounds using the Renilla Luciferase Assay System (Promega, cat #E2820). EC50 values were defined as the compound concentration at which a 50% reduction in the levels of renilla luciferase reporter was observed as compared to control samples in the absence of compound and was determined by non-linear fitting of compound dose-response data. The EC50 was approximated if maximum percentage inhibition was less than 90% and more than 70%.

From US20120230951A1 (priority 2011, published 2012) come the findings set out here.

Molecules are shown by their SMILES. pIC50: −log10 of the molar value.

One may read the IC50 as the concentration needed to halve the response being measured. The pIC50 is the IC50 on a negative log10 scale, so that one unit is a factor of ten. Take `COC(=O)N[C@H]1CC(O)c2cccc3c2N(C1=O)[C@H](c1ncc(-c2ccc(-c4ccc(-c5cnc([C@@H]6CCCN6C(=O)[C@@H](NC(=O)OC)C(C)C)[nH]5)cc4)cc2)[nH]1)C3` (stereo partly drawn) [Compound I-29, {(2S,5S)-7-Hydroxy-2-[5-(4′-{2-[(S)-1-((S)-2-methoxycarbonylamino-3-methyl-butyryl)-pyrrolidin-2-yl]-3H-imidazol-4-yl}-biphenyl-4-yl)-1H-imidazol-2-yl]-4-oxo-1,2,4,5,6,7-hexahydro-azepino[3,2,1-hi]indol-5-yl}-carbamic acid methyl ester]: the IC50 in experiment [1] was 1.02 nM. In experiment [2], the pIC50 is 11.00.

Regarding `COC(=O)N[C@H]1CCc2cccc3c2N(C1=O)[C@H](c1nc2ccc(-c4ccc(-c5cnc([C@@H]6CCCN6C(=O)[C@@H](NC(=O)OC)C(C)C)[nH]5)cc4)cc2[nH]1)C3` [Compound I-10, {(2S,5S)-2-[6-(4-{2-[(S)-1-((S)-2-Methoxycarbonylamino-3-methyl-butyryl)-pyrrolidin-2-yl]-3H-imidazol-4-yl}-phenyl)-1H-benzoimidazol-2-yl]-4-oxo-1,2,4,5,6,7-hexahydro-azepino[3,2,1-hi]indol-5-yl}-carbamic acid methyl ester], the IC50 in experiment [1] was 43.3 nM. The negative logarithm of the IC50 (pIC50) in experiment [2] was 10.00.

Turning to `COC(=O)N[C@H]1CCc2cccc3c2N(C1=O)[C@H](c1ncc(-c2ccc(-c4cnc5cc(-c6cnc([C@@H]7CCCN7C(=O)[C@H](NC(=O)OC)c7ccccc7)[nH]6)ccc5n4)cc2)[nH]1)C3` [Compound I-55, ((2S,5S)-2-{5-[4-(6-{2-[(S)-1-((R)-2-Methoxycarbonylamino-2-phenyl-acetyl)-pyrrolidin-2-yl]-3H-imidazol-4-yl}-quinoxalin-2-yl)-phenyl]-1H-imidazol-2-yl}-4-oxo-1,2,4,5,6,7-hexahydro-azepino[3,2,1-hi]indol-5-yl)-carbamic acid methyl ester], the 50% inhibitory concentration (IC50) in experiment [1] was 0.79 nM. Also, the pIC50 in experiment [2] was 11.00.

For the compound `COC(=O)N[C@H]1CCc2cccc3c2N(C1=O)[C@H](c1ncc(-c2ccc(-c4ccc(-c5cnc([C@@H]6CCCN6C(=O)[C@@H](NC(=O)OC)C(C)C)[nH]5)cc4)c(F)c2)[nH]1)C3` [Compound I-35, {(2S,5S)-2-[5-(2-Fluoro-4′-{2-[(S)-1-((S)-2-methoxycarbonylamino-3-methyl-butyryl)-pyrrolidin-2-yl]-1H-imidazol-4-yl}-biphenyl-4-yl)-1H-imidazol-2-yl]-4-oxo-1,2,4,5,6,7-hexahydro-azepino[3,2,1-hi]indol-5-yl}-carbamic acid methyl ester], the half-maximal inhibitory concentration (IC50) in experiment [1] was determined as 5.92 nM. For the same compound, the pIC50 in experiment [2] was 11.00.

Regarding `COC(=O)N[C@H]1CCc2cccc3c2N(C1=O)[C@H](c1ncc(-c2ccc(-c4cnc5cc(-c6cnc([C@@H]7CCCN7C(=O)[C@@H](NC(=O)OC)C(C)C)[nH]6)ccc5n4)cc2)[nH]1)C3` [Compound I-52, ((2S,5S)-2-{5-[4-(6-{2-[(S)-1-((S)-2-Methoxycarbonylamino-3-methyl-butyryl)-pyrrolidin-2-yl]-3H-imidazol-4-yl}-quinoxalin-2-yl)-phenyl]-1H-imidazol-2-yl}-4-oxo-1,2,4,5,6,7-hexahydro-azepino[3,2,1-hi]indol-5-yl)-carbamicacid methyl ester], in experiment [1], the IC50 was found to be 0.41 nM. Further, the pIC50 in experiment [2] was 10.52.

On to `COC(=O)NC(C(=O)N1CCCC1c1ncc(-c2ccc(-c3ccc(-c4cnc([C@@H]5Cc6cc(Br)cc7c6N5C(=O)[C@@H](NC(=O)OC)CC7)[nH]4)cc3)cc2)[nH]1)C(C)C` (stereo in doubt) [Compound I-25, {(2S,5S)-9-Bromo-2-[5-(4′-{2-[(R)-1-((R)-2-methoxycarbonylamino-3-methyl-butyryl)-pyrrolidin-2-yl]-3H-imidazol-4-yl}-biphenyl-4-yl)-1H-imidazol-2-yl]-4-oxo-1,2,4,5,6,7-hexahydro-azepino[3,2,1-hi]indol-5-yl}-carbamic acid methyl ester], for which the IC50 in experiment [1] came out at 31.2 nM. Also, in experiment [2], the negative logarithm of the IC50 (pIC50) was 8.92.

For the compound `COC(=O)N[C@H]1CCc2cccc3c2N(C1=O)[C@H](c1nc2ccc(-c4ccc5nc(-c6ccc7nc([C@@H]8CCCN8C(=O)[C@@H](NC(=O)OC)C(C)C)[nH]c7c6)cnc5c4)cc2[nH]1)C3` [Compound I-6], in experiment [1], the IC50 came to 17.5 nM. Also, in experiment [2], the negative logarithm of the IC50 (pIC50) is 9.70.

Turning to `COC(=O)N[C@@H](CCS(C)(=O)=O)C(=O)N1CCC[C@H]1c1ncc(-c2ccc(-c3ccc(-c4cnc([C@@H]5Cc6cccc7c6N5C(=O)[C@@H](NC(=O)OC)CC7)[nH]4)cc3)cc2)[nH]1` [Compound I-51, {(2S,5S)-2-[5-(4-{2-[(S)-1-((S)-4-Methanesulfonyl-2-methoxycarbonylamino-butyl)-pyrolidin-2-yl]-3H-imidazol-4-yl}-biphenyl-4-yl)-1H-imidazol-2-yl]-4-oxo-1,2,4,5,6,7-hexahydro-azepino[3,2,1-hi]indol-5-yl}-carbamic acid methyl ester], in experiment [1], the half-maximal inhibitory concentration (IC50) came to 16.6 nM. The negative-log IC50 (pIC50) in experiment [2] is 10.52.

For `COC(=O)N[C@H]1CCc2cccc3c2N(C1=O)[C@H](c1ncc(-c2ccc(-c4ccc5cc(-c6cnc([C@@H]7CCCN7C(=O)[C@@H](NC(=O)OC)C(C)C)[nH]6)ccc5c4)cc2)[nH]1)C3` [Compound I-31, {(2S,5S)-2-[5-(4-(6-{2-[(S)-1-((S)-2-Methoxycarbonylamino-3-methyl-butyryl)-pyrrolidin-2-yl]-3H-imidazol-4-yl}-naphthalen-2-yl)-phenyl)-1H-imidazol-2-yl]-4-oxo-1,2,4,5,6,7-hexahydro-azepino[3,2,1-hi]indol-5-yl}-carbamic acid methyl ester], in experiment [1], the concentration for half-maximal inhibition (IC50) is 1.13 nM. For the same compound, the pIC50 in experiment [2] was 9.39.

As to `COC(=O)N[C@H]1CCc2cccc3c2N(C1=O)[C@H](c1ncc(-c2ccc(-c4ccc(-c5cnc(C6CC7(CCOCC7)CN6C(=O)[C@@H](NC(=O)OC)C(C)C)[nH]5)cc4)cc2)[nH]1)C3` (stereo partly drawn) [Compound I-9, {(2S,5S)-2-[5-(4′-{2-[2-((S)-2-Methoxycarbonylamino-3-methyl-butyryl)-8-oxa-2-aza-spiro[4.5]dec-3-yl]-3H-imidazol-4-yl}-biphenyl-4-yl)-1H-imidazol-2-yl]-4-oxo-1,2,4,5,6,7-hexahydro-azepino[3,2,1-hi]indol-5-yl}-carbamic acid methyl ester], the IC50 in experiment [1] was determined as 3.36 nM. In addition, in experiment [2], the pIC50 was 10.52.

In the case of `COC(=O)N[C@H]1CC(=O)c2cccc3c2N(C1=O)[C@H](c1ncc(-c2ccc(-c4ccc(-c5cnc([C@@H]6CCCN6C(=O)[C@@H](NC(=O)OC)C(C)C)[nH]5)cc4)cc2)[nH]1)C3` [Compound I-28, {(2S,5S)-2-[5-(4′-{2-[(S)-1-((S)-2-Methoxycarbonylamino-3-methyl-butyryl)-pyrrolidin-2-yl]-3H-imidazol-4-yl}-biphenyl-4-yl)-1H-imidazol-2-yl]-4,7-dioxo-1,2,4,5,6,7-hexahydro-azepino[3,2,1-hi]indol-5-yl}-carbamic acid methyl ester], the half-inhibitory concentration (IC50) in experiment [1] stood at 1.81 nM. Further, in experiment [2], the pIC50 is 11.00.
